Reference: patent US6589992B2, “Inhibiting collagen-induced platelet aggregation” (Parker Hughes Institute, priority 1999, dated 2003)
“Also recorded” adds a separate entry of the source. Where two headings read alike, the source gives them in different places.

Columns and labels:
[1] = target: T1, TEC kinase (Homo sapiens, UniProt P42680); test: TEC immune complex kinase assay from collagen-stimulated platelets; format: cell-based
T1 sequence (P42680 1-631): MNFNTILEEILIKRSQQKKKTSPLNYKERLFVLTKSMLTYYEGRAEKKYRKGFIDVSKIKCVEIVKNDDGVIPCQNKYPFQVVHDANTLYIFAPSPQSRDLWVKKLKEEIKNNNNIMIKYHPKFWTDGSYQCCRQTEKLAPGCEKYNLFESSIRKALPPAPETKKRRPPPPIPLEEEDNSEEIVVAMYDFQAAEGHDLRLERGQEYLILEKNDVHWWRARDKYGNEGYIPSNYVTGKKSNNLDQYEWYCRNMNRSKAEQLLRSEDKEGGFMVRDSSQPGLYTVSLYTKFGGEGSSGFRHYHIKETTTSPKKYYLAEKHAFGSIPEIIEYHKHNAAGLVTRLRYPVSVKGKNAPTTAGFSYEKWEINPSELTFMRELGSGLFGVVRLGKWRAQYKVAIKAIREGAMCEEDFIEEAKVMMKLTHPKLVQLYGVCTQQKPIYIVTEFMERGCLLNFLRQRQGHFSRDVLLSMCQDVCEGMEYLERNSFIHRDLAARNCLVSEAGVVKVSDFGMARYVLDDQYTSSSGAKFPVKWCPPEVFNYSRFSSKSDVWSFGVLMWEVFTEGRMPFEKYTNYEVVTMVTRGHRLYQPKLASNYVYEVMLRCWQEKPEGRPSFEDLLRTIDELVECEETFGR
Description: Platelets were isolated from platelet rich plasma (PRP) purchased from the Memorial Blood Bank (Minneapolis, Minn.) as previously described (Asselin et al. 1997) and used at a concentration of 3×10^9 cells/mL in a modified Tyrode's buffer (137 mM NaCl, 2.7 mM KCl, 0.9 mM MgCl2, 5.5 mM glucose, 3.3 mM NaH2PO4, 3.8 mM Hepes, pH 7.4). […] Platelets were then stimulated at 37° C. with 2 μg/mL (or 10 μg/mL) collagen or 0.1 U/mL thrombin (Chronolog Inc., Philadelphia, Pa.). Stimulation was stopped and platelets were lysed at the indicated time points by adding ice cold 3x Triton X-100 lysis buffer (150 mM NaCl, 15 mM EGTA, 3% Triton X-100, 3% Sodium deoxycholate, 0.3% SDS, 3 mM PMSF, 3 mM Na3 VO4, 60 μg/mL leupeptin, 60 μg/mL aprotinin, 50 mM Tris-HCl pH 7.4) and incubating for 1 hour on ice. […]
(§3) For each drug concentration, a BTK/TEC kinase activity index as determined by comparing the ratios of the kinase activity in phosphorimager units (PIU) and density of the protein bands in densitometric scanning units (DSU) to those of the baseline sample and using the formula: Activity Index=[PIU of kinase band/DSU of BTK/TEC protein band]test sample: [PIU of kinase band/DSU of BTK/TEC protein band]baseline control sample (FIGS. 1A-1D).

[2] = tested on: mice; test: Tail bleeding time in mice; format: in vivo
Description: Mice were placed in a tube holder and tail bleeding was performed with a 2 mm cut from the protruding tail tip, the tail was placed vertically into 10 mL normal saline in a 37° C. water bath and bleeding times determined as previously described (Teng et al., 1997). Platelet plug formation and clotting times on the eye after retro-orbital venupuncture were evaluated using published methods (Sheu et al., 1995).

[3] = tested on: mice; test: Toxicity of LFM-A13 in mice; conditions: mice N=160, 12.5 mg/kg to 100 mg/kg i.p.
Source text: For histopathologic studies, tissues were fixed in 10% neutral buffered formalin, dehydrated, and embedded in paraffin by routine methods.

[4] = tested on: platelets; test: Serotonin release from collagen-stimulated platelets; format: cell-based, human; conditions: LFM-A13 treated, N=4
Description: Release of serotonin from collagen (10 and 20 μg/mL)-stimulated platelets was measured using a serotonin detection kit (Immunotech, Marseille, France) according to the manufacturer's specifications. Sonicated platelets were used for measurement of the total serotonin content of platelets.

[5] = tested on: platelets; test: Thrombin-induced platelet aggregation (aggregometer); format: cell-based, human; conditions: thrombin 0.1 U/mL
Description: (§1) Platelet aggregation with respect to control was monitored in a Chronolog Model 560 Dual Chamber Platelet Aggregometer.
(§2) Controls were treated with vehicle (PBS supplemented with 1% DMSO) alone. The treated PRP samples were diluted 1:4 with sterile normal saline and platelets were stimulated with collagen (2 μg/mL or 5 μg/mL, Chronolog Inc., Philadelphia, Pa.) or thrombin (0.1 U/mL, Chronolog Inc., Philadelphia, Pa.) as agonists under stirred conditions. Platelet aggregation was monitored in a platelet aggregometer (Model 560 Dual Chamber-Instrument, Chronolog Ind., Philadelphia, Pa.) for 5 minutes.

[6] = tested on: platelets; test: Collagen-induced platelet aggregation (aggregometer); format: cell-based, human; conditions: for IC50: 30 min pretreatment
Description: as §1, §2

[7] = target: T2, SRC (Homo sapiens, UniProt P12931); test: SRC activity in platelets; format: cell-based; conditions: data not shown
T2 construct: endogenous in cells; host or cells: platelets

[8] = tested on: PLCγ2; test: Collagen-induced PLCγ2 tyrosine phosphorylation in platelets (immunoprecipitation/Western blot); format: cell-based, human; conditions: 100 μM, 30 min pretreatment; 2 μg/mL collagen
Source text: The membrane was stripped and re-probed with antibodies raised against PLCγ2. An increase in the level of phosphorylated PLCγ2 was seen between 30 and 45 seconds following collagen stimulation.

[9] = tested on: platelets; test: Collagen-induced calcium mobilization in platelets (fluorescence); format: cell-based, human; conditions: 100 μM; collagen 20 μg/ml
Description: Platelets were loaded with […] (Molecular Probes, Eugene Oreg.) for 15 minutes at 37 degrees C. […] The changes in fluorescence were monitored on a spectrofluorimeter.

[10] = target: T3, SYK (Homo sapiens, UniProt P43405); test: SYK activity in platelets; format: cell-based; conditions: data not shown
T3 construct: endogenous in cells; host or cells: platelets

[11] = target: BTK (Homo sapiens, UniProt Q06187); test: BTK immune complex kinase assay from collagen-stimulated platelets; conditions: 100 μM
Description: Platelets were isolated from platelet rich plasma (PRP) purchased from the Memorial Blood Bank (Minneapolis, Minn.) as previously described (Asselin et al. 1997) and used at a concentration of 3×10^9 cells/mL in a modified Tyrode's buffer (137 mM NaCl, 2.7 mM KCl, 0.9 mM MgCl2, 5.5 mM glucose, 3.3 mM NaH2PO4, 3.8 mM Hepes, pH 7.4). […] Platelets were then stimulated at 37° C. with 2 μg/mL (or 10 μg/mL) collagen or 0.1 U/mL thrombin (Chronolog Inc., Philadelphia, Pa.). Stimulation was stopped and platelets were lysed at the indicated time points by adding ice cold 3x Triton X-100 lysis buffer (150 mM NaCl, 15 mM EGTA, 3% Triton X-100, 3% Sodium deoxycholate, 0.3% SDS, 3 mM PMSF, 3 mM Na3 VO4, 60 μg/mL leupeptin, 60 μg/mL aprotinin, 50 mM Tris-HCl pH 7.4) and incubating for 1 hour on ice. Following removal of the membranous fraction by centrifugation (12,000xg, 30 min) the samples were subjected to immunoprecipitation utilizing antibodies raised against BTK (Santa Cruz Biotechnologies, Santa Cruz, Calif.), TEC (Upstate Biotechnology, Lake Placid, N.Y.) and PLCγ2 (Santa Cruz Biotechnologies, Santa Cruz, Calif.) (Vassilev et al., 1999). Immunoprecipitations, immune-complex protein kinase assays, and immunoblotting on PVDF membranes (Milipore, Bedford, Mass.) using the ECL chemiluminescence detection system (Amersham Life Sciences, Arlington Heights, Ill.) were conducted as described previously (Mahajan et al., 1999; Sudbeck et al., 1999; Uckun et al., 1996a; Uckun et al., 1996b).
For immunoblotting, antibodies against phosphotyrosine (Transduction Labs, Lexington, Ky.), BTK (Santa Cruz Biotechnologies, Santa Cruz, Calif.), TEC (Upstate Biotechnology, Lake Placid, N.Y.) and PLCγ2 (Santa Cruz Biotechnologies, Santa Cruz, Calif.) were used. Horse radish peroxidase-conjugated sheep anti-mouse, donkey anti-rabbit secondary antibodies were purchased from Transduction Laboratories (Lexington, Ky.). Horse radish peroxidase-conjugated sheep anti-goat antibodies were purchased from Santa Cruz (Santa Cruz, Calif.). Following electrophoresis, kinase gels were dried onto Whatman 3M filter paper and subjected to phosphoimaging on a Molecular Imager (Bio-Rad, Hercules, Calif.) as well as autoradiography on film. Similarly, all chemiluminescent BTK/TEC Western blots were subjected to three dimensional densitometric scanning using the Molecular Imager and Imaging Densitometer using the Molecular Analyst/Macintosh version 2.1 software following the specifications of the manufacturer (Bio-Rad).
Antibodies raised against BTK and TEC utilized for immunoprecipitations and Western blot analysis were purchased from Santa Cruz (Santa Cruz, Calif.).
as §3
The samples were subjected to immunoprecipitation utilizing antibodies raised against BTK. The BTK immune complexes were subjected to immune kinase assays.

[12] = tested on: ICR mice; test: Thromboplastin-induced fatal thromboembolism in mice; format: in vivo; conditions: for median survival time / probability of event-free survival after thromboplastin challenge: N=10
Description: The mice were challenged with 25 mg/kg thromboplastin (Sigma, St. Louis, Mo.) via a bolus i.v. injection in to the tail vein as previously described (Sato et al., 1998). At the time of thromboembolism-related death, after the thromboplastin injection or elective sacrifice at 48 hours using ketamine/xylazine, all mice were perfused with PBS followed by 4% phosphate buffered formalin. PBS and formalin were pumped through the left ventricle of the heart and allowed to exit through a 3 mm incision through the anterior wall of the right ventricle.

[13] = 30 min, 0 seconds after 2 μg/ml collagen
[14] = 30 min, 90 seconds after 2 μg/ml collagen

BTK, sequence (Q06187 whole entry): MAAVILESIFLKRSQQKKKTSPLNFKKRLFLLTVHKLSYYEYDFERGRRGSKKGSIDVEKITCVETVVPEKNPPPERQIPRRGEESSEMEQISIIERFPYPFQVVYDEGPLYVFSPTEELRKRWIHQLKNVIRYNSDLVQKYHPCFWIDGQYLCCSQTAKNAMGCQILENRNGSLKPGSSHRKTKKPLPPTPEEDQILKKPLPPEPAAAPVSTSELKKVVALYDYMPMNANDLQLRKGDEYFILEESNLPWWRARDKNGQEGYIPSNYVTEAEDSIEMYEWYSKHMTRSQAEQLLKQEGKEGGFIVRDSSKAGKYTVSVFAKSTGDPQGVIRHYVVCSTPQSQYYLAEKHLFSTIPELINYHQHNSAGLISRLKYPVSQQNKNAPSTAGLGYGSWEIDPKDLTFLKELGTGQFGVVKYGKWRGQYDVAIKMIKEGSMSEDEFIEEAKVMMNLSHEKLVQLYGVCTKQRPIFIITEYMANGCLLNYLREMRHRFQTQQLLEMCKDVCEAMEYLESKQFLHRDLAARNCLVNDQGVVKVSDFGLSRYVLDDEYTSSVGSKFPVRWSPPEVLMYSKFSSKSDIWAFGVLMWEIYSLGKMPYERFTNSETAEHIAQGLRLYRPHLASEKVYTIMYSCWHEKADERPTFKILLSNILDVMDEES
T2 sequence (P12931 whole entry): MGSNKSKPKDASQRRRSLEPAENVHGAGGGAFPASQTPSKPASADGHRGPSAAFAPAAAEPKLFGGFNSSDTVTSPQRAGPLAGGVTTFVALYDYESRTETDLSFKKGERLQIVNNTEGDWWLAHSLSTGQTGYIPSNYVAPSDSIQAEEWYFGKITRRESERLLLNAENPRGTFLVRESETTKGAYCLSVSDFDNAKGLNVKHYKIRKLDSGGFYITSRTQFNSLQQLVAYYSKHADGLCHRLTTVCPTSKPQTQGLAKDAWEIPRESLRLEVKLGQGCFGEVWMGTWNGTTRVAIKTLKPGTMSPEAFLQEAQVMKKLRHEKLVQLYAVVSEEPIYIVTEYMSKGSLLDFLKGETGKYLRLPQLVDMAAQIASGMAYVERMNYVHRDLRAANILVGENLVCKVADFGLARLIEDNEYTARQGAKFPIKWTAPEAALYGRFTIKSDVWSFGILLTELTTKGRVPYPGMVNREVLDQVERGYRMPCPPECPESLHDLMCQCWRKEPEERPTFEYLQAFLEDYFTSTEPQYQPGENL

For `C/C(O)=C(\C#N)C(=O)Nc1cc(Br)ccc1Br` [LFM-A13, α-cyano-β-hydroxy-β-methyl-N-(2,5-dibromophenyl)-propenamide], the “collagen-induced stimulation of TEC kinase in platelets” value ([1]; collagen-stimulated platelets) was “prevented collagen-induced stimulation of TEC kinase”, the “baseline activity of TEC in unstimulated platelets” value ([1]; unstimulated platelets) was “did not reduce the baseline activity of TEC” and the “prolongation of tail bleeding time versus vehicle” value ([2]; 20 mg/kg) was 4.9 fold. The “average tail bleeding time” value ([2]; 20 mg/kg i.v., N=5) was 7.4 ± 1.0 min, the “prolongation of tail bleeding time versus vehicle” value ([2]; 40 mg/kg) was 5.6 fold and the “average tail bleeding time” value ([2]; 40 mg/kg i.v., N=5) was 8.5 ± 0.6 min. For the same compound, the “prolongation of tail bleeding time versus vehicle” value ([2]; 80 mg/kg) was 6.3 fold, the “average tail bleeding time” value ([2]; 80 mg/kg i.v., N=12) was 9.5 ± 0.5 min and the “toxicity, single i.p. bolus” value [3] was “not toxic”. For the same compound, the “serotonin in platelet supernatants” value [4] was 369 ± 14 nM, the “thrombin-induced platelet aggregation, PRP” value ([5]; PRP treated 20 min or 24 hours) was “No significant effect” and the “effect on thrombin-induced platelet aggregation” value ([5]; up to 1000 μM) was “No significant effect; also recorded: not impaired”. The “collagen-induced platelet aggregation at 100 μM” value ([6]; 100 μM, 30 minute pretreatment, 2 μg/mL collagen) was “completely prevented”, the IC50 ([6]; Homo sapiens, Platelet, read-out: IC50 inhibition of platelet aggregation, 2 μg/mL collagen) was 2780 nM and the IC50 ([6]; Homo sapiens, Platelet, read-out: IC50 inhibition of platelet aggregation, 5 μg/mL collagen) was 66100 nM. For the same compound, the “platelet response to high and low doses of collagen, PRP” value ([6]; PRP treated 20 min or 24 hours, collagen 2 or 5 μg/mL) was “significantly reduced”, the IC50 ([6]; read-out: IC50 inhibition of platelet aggregation, 2 μg/mL collagen) was 2800 ± 930 nM and the “baseline and collagen-induced SRC activity in platelets” value [7] was “did not inhibit the baseline activity of SYK or SRC or prevent collagen-induced SYK and SRC activation”. The “collagen-induced tyrosine phosphorylation of PLCγ2” value [8] was “no enhanced tyrosine phosphorylation of PLCγ2 was detected; also recorded: No phosphorylation of PLCγ2 was noted”, the collagen-induced calcium mobilization [9] was “significantly reduced” and the “baseline and collagen-induced SYK activity in platelets” value [10] was “did not inhibit the baseline activity of SYK or SRC or prevent collagen-induced SYK and SRC activation”. The “DSU (density of BTK protein band, densitometric scanning units)” value [11, 13] was 1236, the “PIU (BTK autophosphorylation, phosphorimager units)” value [11, 13] was 78 and the “BTK kinase activity in collagen-stimulated platelets” value ([11]; 30 min, 2 μg/mL collagen) was “completely prevented collagen-induced stimulation of BTK; also recorded: significantly inhibited BTK kinase activity”. For the same compound, the “DSU (density of BTK protein band, densitometric scanning units)” value [11, 14] was 1432, the “PIU (BTK autophosphorylation, phosphorimager units)” value [11, 14] was 68 and the “reduction of baseline BTK activity in platelets” value ([11]; 30 min at 37° C.) was > 90%. For the same compound, the median survival time ([12]; LFM-A13 20 mg/kg) was 8.0 min, the “probability of event-free survival after thromboplastin challenge” value ([12]; LFM-A13 20 mg/kg) was 20±13% and the median survival time ([12]; LFM-A13 40 mg/kg) was > 2880 min. The “probability of event-free survival after thromboplastin challenge” value ([12]; LFM-A13 40 mg/kg) was 80±13% and the “drug-related toxic lesions in organs” value ([12]; LFM-A13 pretreated, thromboplastin-challenged mice) was “No drug-related toxic lesions were detected”.
